From US8957108B2, “Use of 5,6-dimethylxanthenone-4-acetic acid as an antiviral agent” (University of Maryland, Baltimore, priority 2006, dated 2015)

Tested on: C57BL/6J macrophages
[1] = DMXAA 3 h vs unstimulated wild-type cells

Cc1ccc2c(=O)c3cccc(CC(=O)O)c3oc2c1C [DMXAA, 5,6-dimethylxanthenone-4-acetic acid]
CYP1A2 Fold Change: BL/6: −7.0 fold
CYP1A2 WT/KO: 1.8
CYP1B1 Fold Change: BL/6: −44.3 fold
CYP1B1 WT/KO: 7.5
number of genes down-regulated ≧3-fold (3 h, vs medium-treated cells): 26 genes
number of genes up-regulated ≧3-fold (3 h, vs medium-treated cells): 110 genes
2310043N10RIK Fold Change: BL/6 [1]: −7.1 fold
5830484A20RIK Fold Change: BL/6 [1]: 5.7 fold
ABCB1 Fold Change: BL/6 [1]: 7.9 fold
ABL1 Fold Change: BL/6 [1]: −8.4 fold
ABLIM1 Fold Change: BL/6 [1]: −9.7 fold
ACVR1B Fold Change: BL/6 [1]: −4.5 fold
ADRB2 Fold Change: BL/6 [1]: −3.2 fold
AFTIPHILIN Fold Change: BL/6 [1]: 3.5 fold
AKAP12 Fold Change: BL/6 [1]: 3.2 fold
AMPD3 Fold Change: BL/6 [1]: −3.9 fold
AP2A2 Fold Change: BL/6 [1]: −10.1 fold
APBB1IP Fold Change: BL/6 [1]: −3.9 fold
APOBEC3F Fold Change: BL/6 [1]: 3.5 fold
ARHGEF3 Fold Change: BL/6 [1]: 4.2 fold
ARID3A Fold Change: BL/6 [1]: −4.1 fold
ARL4C Fold Change: BL/6 [1]: 5.7 fold
ASF1A Fold Change: BL/6 [1]: 3.7 fold
ATRX Fold Change: BL/6 [1]: −4.2 fold
B3GAT3 Fold Change: BL/6 [1]: −9.0 fold
BACE1 Fold Change: BL/6 [1]: −11.5 fold
BAMBI Fold Change: BL/6 [1]: 4.0 fold
BCL2 Fold Change: BL/6 [1]: −7.5 fold
BCL2L1 Fold Change: BL/6 [1]: −14.0 fold
BHLHB2 Fold Change: BL/6 [1]: −3.8 fold
BID Fold Change: BL/6 [1]: 3.2 fold
C8ORF4 Fold Change: BL/6 [1]: −35.4 fold
C9ORF26 Fold Change: BL/6 [1]: 9.1 fold
CCL2 Fold Change: BL/6 [1]: 125.6 fold
CCL3 Fold Change: BL/6 [1]: 5.6 fold
CCL4 Fold Change: BL/6 [1]: 15.1 fold
CCL5 Fold Change: BL/6 [1]: 5.3 fold
CCL7 Fold Change: BL/6 [1]: 9.6 fold
CCL13 Fold Change: BL/6 [1]: 16.8 fold
CCND2 Fold Change: BL/6 [1]: 6.4 fold
CCNE1 Fold Change: BL/6 [1]: 3.2 fold
CCNF Fold Change: BL/6 [1]: −10.6 fold
CCRN4L Fold Change: BL/6 [1]: 5.7 fold
CD37 Fold Change: BL/6 [1]: −5.2 fold
CD40 Fold Change: BL/6 [1]: 10.3 fold
CD86 Fold Change: BL/6 [1]: 11.1 fold
CD274 Fold Change: BL/6 [1]: 6.0 fold
CDC6 Fold Change: BL/6 [1]: 3.8 fold
CDC7 Fold Change: BL/6 [1]: −3.4 fold
CDC37L1 Fold Change: BL/6 [1]: −3.8 fold
CDKN1A Fold Change: BL/6 [1]: 3.1 fold
CEBPB Fold Change: BL/6 [1]: −3.3 fold
CITED2 Fold Change: BL/6 [1]: 6.8 fold
CLCA1 Fold Change: BL/6 [1]: −4.8 fold
CNR2 Fold Change: BL/6 [1]: −9.1 fold
CREBBP Fold Change: BL/6 [1]: −4.5 fold
CXCL10 Fold Change: BL/6 [1]: 69.1 fold
DAXX Fold Change: BL/6 [1]: 7.9 fold
DSCR1 Fold Change: BL/6 [1]: 3.4 fold
FGD6 Fold Change: BL/6 [1]: 3.0 fold
FGL2 Fold Change: BL/6 [1]: 10.6 fold
GBP2 Fold Change: BL/6 [1]: 4.8 fold
GBP4 Fold Change: BL/6 [1]: 7.5 fold
GBP6 Fold Change: BL/6 [1]: 10.8 fold
GYPC Fold Change: BL/6 [1]: 5.9 fold
IFI16 Fold Change: BL/6 [1]: 4.3 fold
IFI35 Fold Change: BL/6 [1]: 3.6 fold
IFI203 Fold Change: BL/6 [1]: 21.9 fold
IFI205 Fold Change: BL/6 [1]: 6.4 fold
IFIH1 Fold Change: BL/6 [1]: 10.1 fold
IFIT1 Fold Change: BL/6 [1]: 33.5 fold
IFIT2 Fold Change: BL/6 [1]: 27.1 fold
IFIT3 Fold Change: BL/6 [1]: 32.2 fold
IFNA5 Fold Change: BL/6 [1]: 32.4 fold
IFNA6 Fold Change: BL/6 [1]: 77.7 fold
IFNB1 Fold Change: BL/6 [1]: 194.1 fold
IFNG Fold Change: BL/6 [1]: 46.5 fold
IGTP Fold Change: BL/6 [1]: 13.7 fold
IIGP1 Fold Change: BL/6 [1]: 21.9 fold
IL6 Fold Change: BL/6 [1]: 564.6 fold
IL12B Fold Change: BL/6 [1]: 4.4 fold
IL15 Fold Change: BL/6 [1]: 7.2 fold
IL15RA Fold Change: BL/6 [1]: 14.9 fold
IRF1 Fold Change: BL/6 [1]: 6.9 fold
IRF2 Fold Change: BL/6 [1]: 4.1 fold
IRGM Fold Change: BL/6 [1]: 6.6 fold
ISG20 Fold Change: BL/6 [1]: 20.9 fold
KATNA1 Fold Change: BL/6 [1]: 3.2 fold
LGP2 Fold Change: BL/6 [1]: 6.4 fold
LHX2 Fold Change: BL/6 [1]: 92.1 fold
LOC129607 Fold Change: BL/6 [1]: 58.9 fold
MAFK Fold Change: BL/6 [1]: 4.7 fold
MARCH5 Fold Change: BL/6 [1]: 4.7 fold
MOV10 Fold Change: BL/6 [1]: 4.2 fold
MX1 Fold Change: BL/6 [1]: 191.4 fold
MX2 Fold Change: BL/6 [1]: 85.3 fold
NMI Fold Change: BL/6 [1]: 4.5 fold
NP Fold Change: BL/6 [1]: 4.1 fold
NT5C3 Fold Change: BL/6 [1]: 6.4 fold
OAS1B Fold Change: BL/6 [1]: 12.7 fold
OASL Fold Change: BL/6 [1]: 35.6 fold
P4HA1 Fold Change: BL/6 [1]: 4.3 fold
P8 Fold Change: BL/6 [1]: 3.7 fold
PARP9 Fold Change: BL/6 [1]: 4.0 fold
PELI1 Fold Change: BL/6 [1]: 5.9 fold
PGF Fold Change: BL/6 [1]: 25.3 fold
PLAU Fold Change: BL/6 [1]: 3.9 fold
PPP1R15A Fold Change: BL/6 [1]: 5.3 fold
PTX3 Fold Change: BL/6 [1]: 5.3 fold
PVRL2 Fold Change: BL/6 [1]: 6.4 fold
PVRL4 Fold Change: BL/6 [1]: 9.0 fold
REL Fold Change: BL/6 [1]: 3.1 fold
RGC32 Fold Change: BL/6 [1]: 8.7 fold
RIPK2 Fold Change: BL/6 [1]: 3.2 fold
RSAD2 Fold Change: BL/6 [1]: 15.5 fold
SAP30 Fold Change: BL/6 [1]: 3.9 fold
SAV1 Fold Change: BL/6 [1]: 3.2 fold
SDC4 Fold Change: BL/6 [1]: 3.9 fold
SECTM1 Fold Change: BL/6 [1]: 17.7 fold
SLC7A2 Fold Change: BL/6 [1]: 3.6 fold
SOAT1 Fold Change: BL/6 [1]: 3.6 fold
SOCS1 Fold Change: BL/6 [1]: 57.5 fold
STAT2 Fold Change: BL/6 [1]: 3.9 fold
TGTP Fold Change: BL/6 [1]: 60.2 fold
TLK2 Fold Change: BL/6 [1]: 4.2 fold
TLR3 Fold Change: BL/6 [1]: 8.8 fold
TMOD3 Fold Change: BL/6 [1]: 3.4 fold
TNF Fold Change: BL/6 [1]: 6.9 fold
TNFRSF11B Fold Change: BL/6 [1]: 90.5 fold
TNFSF9 Fold Change: BL/6 [1]: 5.1 fold
TOR1AIP1 Fold Change: BL/6 [1]: 3.1 fold
TPST1 Fold Change: BL/6 [1]: 6.7 fold
TREX1 Fold Change: BL/6 [1]: 10.2 fold
TRIM21 Fold Change: BL/6 [1]: 8.4 fold
TRIM25 Fold Change: BL/6 [1]: 4.2 fold
TRIM34 Fold Change: BL/6 [1]: 3.3 fold
USP18 Fold Change: BL/6 [1]: 11.6 fold
VCAM1 Fold Change: BL/6 [1]: 3.4 fold
